In patent publication US8338422B2, “Indolin-2-ones and aza-indolin-2-ones” (Janssen Pharmaceutica NV, priority 2007, dated 2012):

How the values were obtained:
[1] = tested on: PC-3; experiment: Cellular proliferation assay (Alamar blue), PC-3; format: cell-based; details: PC-3 cells, 72 hours with compound, 10% FCS
Method: (§1) […] functional properties of these compounds was tested in cellular proliferation assays on a panel of different cell lines in the presence of 10% FCS serum (37° C. and 5% (v/v) CO2). In a first step these cells were seeded and incubated for 24 hours in the absence of compound. In the second step the cells were incubated for 72 hours with the compounds to be tested for 72 hours. The viable cell number was finally assessed in a standard Alamar blue cell viability assay.
(§2) The viable cell number was assessed by incubation for either 4 h (HCT-116, H1299, H460) 6 h (SKOV3, HT29, U87-MG, Colo205) or 24 h (A2780, PC3, MDA-MB-231, A549, MCF-7) with Alamar blue (Resazurin 9 μg/ml, K-Ferrocyanide 90 μM K-Ferricyanide 90 μM) and the converted fluorescent product was quantified on a fluorescent plate readed (544 nm/590 nm). Effect of the compounds is calculated as of on control cells.

[2] = biological target: CDK1/CyclinB (h) (Homo sapiens, UniProt P06493); experiment: CDK1/CyclinB human kinase assay (FRET); format: biochemical
Method in brief: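 Z'-LYTE FRET format: 0.2 μg/ml enzyme with 2 μM Ser/Thr peptide 12 and 10 μM ATP in 50 mM Hepes pH 7.5, 10 mM MgCl2, 1 mM EGTA, 0.01% Brij-35, 60 min at room temperature. Protease development 60 min; coumarin/fluorescein emission ratio (460/538 nm, excitation 390 nm) reports phosphorylation.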

[3] = tested on: HCT-116; experiment: Cellular proliferation assay (Alamar blue), HCT-116; format: cell-based; details: HCT-116 cells, 72 hours with compound, 10% FCS
Method in brief: (§3)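 Proliferation was assessed over 72 h of compound treatment, following 24 h of seeding without compound, under 10% FCS, 37° C. and 5% CO2. Fluorescent resazurin product was measured and compared with control cells.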

[4] = biological target: AuroraB (h) (Homo sapiens, UniProt Q96GD4); experiment: Aurora-B human kinase assay (SPA); format: biochemical
Method in brief: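 Scintillation proximity assay: AuroraB (h) at 0.5 μg/ml with 3 μM biotinylated peptide, 0.5 μM ATP and 2.2 nM [γ-33P]ATP in 60 mM Hepes pH 7.5, 3 mM MgCl2, 3 mM MnCl2, 2 mM DTT. 60 min at room temperature, EDTA stop, streptavidin PVT beads read on Leadseeker.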

[5] = biological target: PLK4 (h) (Homo sapiens, UniProt O00444); experiment: PLK-4 human kinase assay (SPA); format: biochemical
Method in brief: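 Radiometric readout: 33P-labelled peptide captured on streptavidin SPA beads after EDTA stop, imaged by Leadseeker. Reaction ran 60 min at room temperature in Hepes pH 8.0 buffer. It contained 1 μM ATP with 2 nM [γ-33P]ATP, 10 μM biotinylated peptide and PLK4 (h) at 19 μg/ml.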

[6] = tested on: U87MG; experiment: Cellular proliferation assay (Alamar blue), U87MG; format: cell-based; details: U87MG cells, 72 hours with compound, 10% FCS
Method: as §1, §2

[7] = tested on: MDA/MB231; experiment: Cellular proliferation assay (Alamar blue), MDA/MB231; format: cell-based; details: MDA/MB231 cells, 72 hours with compound, 10% FCS
Method: as §1, §2

[8] = tested on: A2780; experiment: Cellular proliferation assay (Alamar blue), A2780; format: cell-based; details: A2780 cells, 72 hours with compound, 10% FCS
Method in brief: as §3

[9] = tested on: H1299; experiment: Cellular proliferation assay (Alamar blue), H1299; format: cell-based; details: H1299 cells, 72 hours with compound, 10% FCS
Method in brief: as §3

[10] = biological target: GSK3β (h) (Homo sapiens, UniProt P49841); experiment: GSK-3β human kinase assay (SPA); format: biochemical
Method in brief: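 Radiometric SPA read-out: after EDTA stop, biotinylated 33P-labelled peptide bound streptavidin PVT beads and was imaged on Leadseeker. Reaction: 60 min, room temperature, GSK3β (h) at 1 μg/ml, 1 μM substrate peptide, 1 μM ATP with 2 nM [γ-33P]ATP, Tris pH 7.4/MgCl2/DTT buffer.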

Chain of GSK3β (h) (P49841 whole entry): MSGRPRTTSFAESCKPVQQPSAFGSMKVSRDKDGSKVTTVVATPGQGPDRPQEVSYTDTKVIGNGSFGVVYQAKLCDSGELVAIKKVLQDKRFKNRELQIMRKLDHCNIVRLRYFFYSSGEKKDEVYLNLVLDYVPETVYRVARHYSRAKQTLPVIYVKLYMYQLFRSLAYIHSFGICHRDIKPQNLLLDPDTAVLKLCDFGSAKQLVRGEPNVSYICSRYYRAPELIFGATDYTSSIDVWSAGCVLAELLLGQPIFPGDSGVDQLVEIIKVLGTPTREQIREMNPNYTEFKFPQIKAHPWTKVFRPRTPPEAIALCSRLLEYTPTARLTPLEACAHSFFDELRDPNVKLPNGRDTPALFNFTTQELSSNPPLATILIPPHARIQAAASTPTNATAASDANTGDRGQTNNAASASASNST
Chain of CDK1/CyclinB (h) (P06493 whole entry): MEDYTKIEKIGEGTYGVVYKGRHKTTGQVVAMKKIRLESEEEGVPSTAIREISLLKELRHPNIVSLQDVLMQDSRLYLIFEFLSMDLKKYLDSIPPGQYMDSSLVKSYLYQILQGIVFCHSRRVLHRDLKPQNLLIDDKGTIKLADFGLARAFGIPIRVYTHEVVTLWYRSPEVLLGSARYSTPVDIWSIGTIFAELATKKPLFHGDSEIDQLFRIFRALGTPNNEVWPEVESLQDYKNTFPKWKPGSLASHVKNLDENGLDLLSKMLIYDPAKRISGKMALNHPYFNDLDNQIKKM
Chain of CDK1/CyclinB (h) (P14635 whole entry partner): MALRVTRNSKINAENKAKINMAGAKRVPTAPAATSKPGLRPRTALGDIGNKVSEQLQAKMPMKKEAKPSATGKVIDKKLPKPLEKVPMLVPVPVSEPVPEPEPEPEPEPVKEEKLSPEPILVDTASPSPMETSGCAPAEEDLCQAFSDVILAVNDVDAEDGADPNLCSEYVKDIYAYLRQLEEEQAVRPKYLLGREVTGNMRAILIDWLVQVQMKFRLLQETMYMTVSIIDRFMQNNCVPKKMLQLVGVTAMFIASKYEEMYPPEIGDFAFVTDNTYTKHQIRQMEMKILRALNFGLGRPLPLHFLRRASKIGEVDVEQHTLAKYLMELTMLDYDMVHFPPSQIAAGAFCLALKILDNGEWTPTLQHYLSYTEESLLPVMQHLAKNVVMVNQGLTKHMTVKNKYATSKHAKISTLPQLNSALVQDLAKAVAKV
Chain of PLK4 (h) (O00444 whole entry): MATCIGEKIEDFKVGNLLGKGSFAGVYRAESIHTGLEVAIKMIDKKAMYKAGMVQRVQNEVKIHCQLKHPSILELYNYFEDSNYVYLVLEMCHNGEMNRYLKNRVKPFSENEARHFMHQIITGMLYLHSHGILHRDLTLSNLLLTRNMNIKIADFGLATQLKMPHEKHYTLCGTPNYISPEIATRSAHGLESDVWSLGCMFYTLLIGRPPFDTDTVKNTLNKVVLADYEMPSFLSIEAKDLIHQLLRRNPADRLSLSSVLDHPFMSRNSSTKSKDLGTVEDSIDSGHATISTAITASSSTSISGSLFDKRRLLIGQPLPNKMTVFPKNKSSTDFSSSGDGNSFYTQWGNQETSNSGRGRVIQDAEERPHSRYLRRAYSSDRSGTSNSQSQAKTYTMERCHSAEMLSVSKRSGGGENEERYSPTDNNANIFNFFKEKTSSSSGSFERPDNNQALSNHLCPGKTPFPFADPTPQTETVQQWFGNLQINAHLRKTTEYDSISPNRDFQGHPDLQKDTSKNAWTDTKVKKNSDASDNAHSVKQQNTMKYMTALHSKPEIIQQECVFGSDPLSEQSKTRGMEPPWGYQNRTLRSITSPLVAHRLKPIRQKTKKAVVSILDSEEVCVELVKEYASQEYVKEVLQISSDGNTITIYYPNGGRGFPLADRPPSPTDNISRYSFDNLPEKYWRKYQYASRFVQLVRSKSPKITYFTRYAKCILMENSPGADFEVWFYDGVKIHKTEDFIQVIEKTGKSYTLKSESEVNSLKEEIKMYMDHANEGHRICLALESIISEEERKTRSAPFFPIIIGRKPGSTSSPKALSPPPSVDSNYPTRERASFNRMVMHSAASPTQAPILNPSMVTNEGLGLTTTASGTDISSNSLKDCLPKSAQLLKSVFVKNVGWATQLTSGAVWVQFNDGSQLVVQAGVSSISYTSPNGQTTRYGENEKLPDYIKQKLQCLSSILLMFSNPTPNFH
Chain of AuroraB (h) (Q96GD4 whole entry): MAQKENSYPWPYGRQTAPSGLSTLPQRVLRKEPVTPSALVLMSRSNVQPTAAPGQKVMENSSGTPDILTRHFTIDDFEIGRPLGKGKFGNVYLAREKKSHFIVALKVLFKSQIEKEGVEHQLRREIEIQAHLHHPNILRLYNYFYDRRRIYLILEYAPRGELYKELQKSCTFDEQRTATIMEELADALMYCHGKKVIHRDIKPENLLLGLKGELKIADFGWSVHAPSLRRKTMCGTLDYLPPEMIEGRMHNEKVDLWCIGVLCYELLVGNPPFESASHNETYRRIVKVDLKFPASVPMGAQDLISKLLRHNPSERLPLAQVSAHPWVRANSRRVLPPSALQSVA

Structure (SMILES) | pIC50 PC-3 [1] | CDK1 pIC50 [2] | pIC50 HCT-116 [3] | AuroraB pIC50 [4] | PLK4 pIC50 [5] | pIC50 U87MG [6] | pIC50 MDA/MB231 [7] | pIC50 A2780 [8] | pIC50 H1299 [9] | GSK3B pIC50 [10]
CN1CCCNc2ncnc3c2C(=CNc2ccc(N4CCOCC4)c(c2)OCCCC1=O)C(=O)N3 (mixture of isomers) [Compound 124] | 6.02 | 7.53 | 6.21 | 6.13 | 7.34 | 6.16 | 5.37 | 5.94 | 6.89 | 7.33
COc1cc2cc(c1OC)OCCCCC(=O)N(C)CCNc1ncnc3c1C(=CN2)C(=O)N3 (mixture of isomers) [Compound 129] | <5 | <5 | <5 | 5.26 | 5.71 | 5.42 | <5 | <5 | 5.65 | <5
COc1cc2cc(c1OC)OCCCCC(=O)N(C)CCCNc1ncnc3c1C(=CN2)C(=O)N3 (mixture of isomers) [Compound 134] | 5.44 | 5.68 | 5.79 | 6.59 | 6.6 | <5 | 5.03 | 5.07 | 5.76 | 5.35
CN1CCN(c2ccc3cc2OCCCCC(=O)N(C)CCNc2ncnc4c2C(=CN3)C(=O)N4)CC1 (mixture of isomers) [Compound 135] | <5 | <5 | 5.21 | <5 | 6.67 | <5 | <5 | <5 | 5.31 | 6.2
CN1CCN(c2ccc3cc2OCCCCC(=O)N(C)CCCNc2ncnc4c2C(=CN3)C(=O)N4)CC1 (mixture of isomers) [Compound 136] | 5.39 | 5.88 | 6.44 | 5.55 | 7.19 | 6.54 | 5.55 | 5.89 | 5.67 | 7.23
CN1CCN(c2ccc3cc2OCCCC(=O)N(C)CCNc2ncnc4c2C(=CN3)C(=O)N4)CC1 (mixture of isomers) [Compound 137] | <5 | 5.83 | 6.04 | ~5 | 7.3 | 5.94 | 5.31 | 5.61 | 5.73 | 6.405
CN1CCN(c2ccc3cc2OCCCCCC(=O)N(C)CCCNc2ncnc4c2C(=CN3)C(=O)N4)CC1 (mixture of isomers) [Compound 138] | <5 | 5.8 | 5.52 | <5 | 6.74 | 6.05 | <5 | 5.16 | <5 | 6.75
CN1CCCCCC(=O)N(C)CCCNc2ncnc3c2C(=CNc2ccc(N4CCOCC4)c(c2)C1)C(=O)N3 (mixture of isomers) [Compound 139] | <5 | <5 | 5.51 | <5 | 6.64 | 5.35 | <5 | 5.08 | <5 | 5.87
COc1ccc2cc1OCCCC(=O)N(C(C)C)CCCNc1ncnc3c1C(=CN2)C(=O)N3 (mixture of isomers) [Compound 144] | 6.14 | 6.12 | 6.32 | 7.25 | 7.03 | 5.89 | 5.92 | 5.87 | 6.56 | 7.32
COc1ccc2cc1OCCCC(=O)N(C1CCCCC1)CCCNc1ncnc3c1C(=CN2)C(=O)N3 (mixture of isomers) [Compound 145] | 6.04 | <5 | 6.04 | 6.41 | 6.61 | 5.45 | 5.73 | 5.53 | 6.08 | 6.4
COc1cc2cc(c1OC)OCCCC(=O)NCCCNc1ncnc3c1C(=CN2)C(=O)N3 (mixture of isomers) [Compound 147] | 5.42 | 6.91 | 5.90 | 6.6 | 6.95 | 5.35 | <5 | 5.37 | 5.97 | 6.5
COc1cc2cc(c1OC)OCC(=O)N(C)CCCCNc1ncnc3c1C(=CN2)C(=O)N3 (mixture of isomers) [Compound 150] | <5 | <5 | <5 | 5.23 | <5 | <5 | <5 | <5 | <5 | <5
